Source: ChEMBL document CHEMBL1201862, “PubChem BioAssay data set” (2004)
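Exposure lasted 48 hours, with cells grown in 96-well plates and compounds tested at five concentrations. GI50: concentration for 50% inhibition of growth.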 Active and inactive are the calls of the source. No stated cut-off is given here; in the data, active = GI50 up to about 1.1 µM and inactive = higher.

What was measured:
Assay in all cases: NCI-60 cell line screen, 48 h
NCI-H522 = system: NCI-H522
ACHN = system: ACHN
SK-MEL-5 = system: SK-MEL-5
MDA-MB-231 = system: MDA-MB-231
SF-295 = system: SF-295
OVCAR-8 = system: OVCAR-8
DU-145 = system: DU-145
MDA-MB-435 = system: MDA-MB-435
MDA-N = system: MDA-N
OVCAR-4 = system: OVCAR-4
MCF7 = system: MCF7
A549 = system: A549
U-251 = system: U-251
NCI-H460 = system: NCI-H460
HOP-92 = system: HOP-92
SK-MEL-28 = system: SK-MEL-28
TK-10 = system: TK-10
IGROV-1 = system: IGROV-1
HL-60 = system: HL-60
Hs-578T = system: Hs-578T
SK-OV-3 = system: SK-OV-3
KM12 = system: KM12
Malme-3M = system: Malme-3M
CAKI-1 = system: CAKI-1
OVCAR-5 = system: OVCAR-5
SNB-75 = system: SNB-75
CCRF-CEM = system: CCRF-CEM
HCT-15 = system: HCT-15
T47D = system: T47D
M14 = system: M14
786-0 = system: 786-0
COLO 205 = system: COLO 205
HT-29 = system: HT-29
SR = system: SR
NCI/ADR-RES = system: NCI/ADR-RES
HOP-62 = system: HOP-62
SW-620 = system: SW-620
SF-268 = system: SF-268
NCI-H23 = system: NCI-H23
HCC 2998 = system: HCC 2998
SN12C = system: SN12C
K562 = system: K562
LOX IMVI = system: LOX IMVI
PC-3 = system: PC-3
UACC-257 = system: UACC-257
UO-31 = system: UO-31
UACC-62 = system: UACC-62
MOLT-4 = system: MOLT-4
RPMI-8226 = system: RPMI-8226
A498 = system: A498
SF-539 = system: SF-539
SK-MEL-2 = system: SK-MEL-2
EKVX = system: EKVX
OVCAR-3 = system: OVCAR-3
SNB-19 = system: SNB-19
HCT-116 = system: HCT-116
RXF 393 = system: RXF 393
NCI-H226 = system: NCI-H226

`CC1(C)CC2=NOS3=C2C(=NO3)C1c1ccccn1` (stereo unspecified) was tested, and the GI50 (NCI-H522) was 38.5 µM (inactive), the GI50 (ACHN) was 74.8 µM (inactive) and the GI50 (SK-MEL-5) was 17.8 µM (inactive). The GI50 (MDA-MB-231) was > 100 µM (inactive), the GI50 (SF-295) was > 100 µM (inactive) and the GI50 (OVCAR-8) was 39.5 µM (inactive). For the same compound, the GI50 (DU-145) was > 100 µM (inactive), the GI50 (MDA-MB-435) was 18.6 µM (inactive) and the GI50 (MDA-N) was 30.9 µM (inactive). The GI50 (OVCAR-4) was > 100 µM (inactive), the GI50 (MCF7) was > 100 µM (inactive) and the GI50 (A549) was 83.2 µM (inactive). The GI50 (U-251) was > 100 µM (inactive), the GI50 (NCI-H460) was 33.7 µM (inactive) and the GI50 (HOP-92) was > 100 µM (inactive). For the same compound, the GI50 (SK-MEL-28) was > 100 µM (inactive), the GI50 (TK-10) was > 100 µM (inactive) and the GI50 (IGROV-1) was 29.6 µM (inactive). For the same compound, the GI50 (HL-60) was 24.3 µM (inactive), the GI50 (Hs-578T) was > 100 µM (inactive) and the GI50 (SK-OV-3) was > 100 µM (inactive). For the same compound, the GI50 (KM12) was 61.2 µM (inactive), the GI50 (Malme-3M) was 46.9 µM (inactive) and the GI50 (CAKI-1) was > 100 µM (inactive). For the same compound, the GI50 (OVCAR-5) was > 100 µM (inactive), the GI50 (SNB-75) was > 100 µM (inactive) and the GI50 (CCRF-CEM) was 29 µM (inactive). The GI50 (HCT-15) was 20 µM, the GI50 (T47D) was > 100 µM (inactive) and the GI50 (M14) was 40.7 µM (inactive). For the same compound, the GI50 (786-0) was 34.7 µM (inactive), the GI50 (COLO 205) was 31.2 µM (inactive) and the GI50 (HT-29) was 56.8 µM (inactive). The GI50 (SR) was 39.3 µM (inactive), the GI50 (NCI/ADR-RES) was > 100 µM (inactive) and the GI50 (HOP-62) was > 100 µM (inactive). For the same compound, the GI50 (SW-620) was 69.5 µM (inactive), the GI50 (SF-268) was > 100 µM (inactive) and the GI50 (NCI-H23) was > 100 µM (inactive). The GI50 (HCC 2998) was > 100 µM (inactive), the GI50 (SN12C) was > 100 µM (inactive) and the GI50 (K562) was 24 µM (inactive). The GI50 (LOX IMVI) was 36.1 µM (inactive), the GI50 (PC-3) was > 100 µM (inactive) and the GI50 (UACC-257) was 28.9 µM (inactive). For the same compound, the GI50 (UO-31) was 61.7 µM (inactive), the GI50 (UACC-62) was 44.1 µM (inactive) and the GI50 (MOLT-4) was 34.3 µM (inactive). The GI50 (RPMI-8226) was > 100 µM (inactive), the GI50 (A498) was > 100 µM (inactive) and the GI50 (SF-539) was 64 µM (inactive). The GI50 (SK-MEL-2) was > 100 µM (inactive), the GI50 (EKVX) was > 100 µM (inactive) and the GI50 (OVCAR-3) was 31 µM (inactive). The GI50 (SNB-19) was > 100 µM (inactive) and the GI50 (HCT-116) was 48.8 µM (inactive).

With `Cn1c2c3ccccc3nc-2c(O)c2ccccc21` [HYDROXYCRYPTOLEPINE] the GI50 (NCI-H522) was > 100 µM (inactive), the GI50 (ACHN) was 48.6 µM (inactive) and the GI50 (SK-MEL-5) was 41.2 µM (inactive). For the same compound, the GI50 (MDA-MB-231) was 85.9 µM (inactive), the GI50 (SF-295) was > 100 µM (inactive) and the GI50 (OVCAR-8) was > 100 µM (inactive). The GI50 (DU-145) was 3.46 µM (inactive), the GI50 (MDA-MB-435) was > 100 µM (inactive) and the GI50 (MDA-N) was > 100 µM (inactive). The GI50 (OVCAR-4) was 54.1 µM (inactive), the GI50 (MCF7) was > 100 µM (inactive) and the GI50 (A549) was > 100 µM (inactive). The GI50 (U-251) was > 100 µM (inactive), the GI50 (NCI-H460) was 59.2 µM (inactive) and the GI50 (HOP-92) was > 100 µM (inactive). The GI50 (SK-MEL-28) was 6.52 µM (inactive), the GI50 (TK-10) was > 100 µM (inactive) and the GI50 (IGROV-1) was 35.4 µM (inactive). The GI50 (SK-OV-3) was > 100 µM (inactive), the GI50 (KM12) was > 100 µM (inactive) and the GI50 (Malme-3M) was > 100 µM (inactive). For the same compound, the GI50 (CAKI-1) was 8.91 µM (inactive), the GI50 (OVCAR-5) was > 100 µM (inactive) and the GI50 (SNB-75) was 34.1 µM (inactive). For the same compound, the GI50 (CCRF-CEM) was 90.6 µM (inactive), the GI50 (HCT-15) was 53.3 µM and the GI50 (RXF 393) was > 100 µM (inactive). The GI50 (T47D) was > 100 µM (inactive), the GI50 (M14) was > 100 µM (inactive) and the GI50 (786-0) was > 100 µM (inactive). For the same compound, the GI50 (COLO 205) was 83.2 µM (inactive), the GI50 (HT-29) was > 100 µM (inactive) and the GI50 (NCI/ADR-RES) was > 100 µM (inactive). For the same compound, the GI50 (HOP-62) was > 100 µM (inactive), the GI50 (SW-620) was > 100 µM (inactive) and the GI50 (NCI-H226) was > 100 µM (inactive). The GI50 (SF-268) was 0.735 µM (active), the GI50 (NCI-H23) was > 100 µM (inactive) and the GI50 (HCC 2998) was > 100 µM (inactive). For the same compound, the GI50 (SN12C) was 48.2 µM (inactive), the GI50 (K562) was > 100 µM (inactive) and the GI50 (LOX IMVI) was > 100 µM (inactive). The GI50 (PC-3) was > 100 µM (inactive), the GI50 (UACC-257) was > 100 µM (inactive) and the GI50 (UO-31) was > 100 µM (inactive). The GI50 (UACC-62) was > 100 µM (inactive), the GI50 (MOLT-4) was 27.7 µM (inactive) and the GI50 (RPMI-8226) was 45.7 µM (inactive). For the same compound, the GI50 (A498) was > 100 µM (inactive), the GI50 (SF-539) was 50.5 µM (inactive) and the GI50 (SK-MEL-2) was > 100 µM (inactive). For the same compound, the GI50 (EKVX) was > 100 µM (inactive), the GI50 (OVCAR-3) was > 100 µM (inactive) and the GI50 (SNB-19) was > 100 µM (inactive). The GI50 (HCT-116) was 49.4 µM (inactive).
